Measurements published in patent publication US7098245B2, “Polynucleotide cleavage agent switched on by photo irradiation” (Tottori University, priority 2002, dated 2006).

What was measured:
DNA = conditions: background, symposium report 2001; cited from earlier work
supercoiled φX174 DNA = assay: DNA cleavage test using (R,R)- and (S,S)-11 (Xe lamp, 45 min); type: biochemical
Method: The reaction was carried out in a solvent of 20 mM sodium phosphate of pH 7.0 and 20% DMSO. Samples were irradiated for 45 min at a distance of 6 cm using Xe lamp using polystylene filter. Electrophoresis (0.8% agarose gel, TAE buffer, 100 V, 40 min). Gel was stained by EtBr and visualized by UV-B lamp (transillumnator).

supercoiled φX-174 DNA = assay: DNA cleavage test under photo-irradiation (Xe lamp with polystylene filter, 2 hrs); type: biochemical
Method: (§1) DNA cleavage test using (S,S)—NH2-mono under photo-irradiation φX174 RFI DNA (New England BioLabs, N3021S, 150 ┌M) (1 ┌L) was dissolved in a 10 mM sodium phosphate buffer pH 7.0 (9 ┌L) in a micro tube.
(§2) Ethyl 9-anthracene carboxylate (anth-OEt) was used as a control compound. Three samples were prepared: a buffer solution of DNA, a mixture of anth-OEt with a buffer solution of DNA, and a mixture of (S,S)—NH2-mono with a buffer solution of DNA. These samples were placed under a UV-A lamp (max=365 nm, trans illuminator) at a distance of 4 cm, and irradiated for 3 h. The resulting mixture was subjected to an electrophoresis experiment ([…], TAE buffer, 100 V, 30 min). The resulting agarose gel was stained with ethidium bromide (EtBr), visualized by UV-B lamp and the DNA cleavage ratio was determined by NIH Image 1.62.
The test was carried out using (R,R)— and (S,S)—NH2-mono in the same manner as described in Example 2 except that the test samples were placed under a Xe lamp with a polystylene filter at a distance of 3 cm and irradiated for 2 hrs.

[1] = Stability of the compound (sunlight in solution; after deprotection); type: physicochemical
Method: Part G. A solution of ester 5 (14.6 mg, 0.0307 mmol) in methanol (0.3 mL) was stirred at rt in the presence of Pd/C (3.0 mg, 20 wt %) under H2 (1 atm) for 15 h in the dark. The crude products were filtered through a sintered glass filter with a Celite pad, and the filtrate was dried under vacuo to afford the title compound (S,S)—NH2-mono(9.2 mg, 0.027 mmol) in 88% yield. This compound was unstable when dissolved in methanol or CHCl3 under the irradiation of sunlight; therefore, it should be kept under an argon atmosphere in a dark place.
The reaction was carried out in a flask that was covered by aluminum foil to keep out light. A solution of (R,R)-10 (18 mg, 0.038 mmol) in methanol (1.0 mL) was stirred at rt in the presence of Pd/C (5.4 mg, 30 wt %) under H2 (1 atom) for 5 days and filtered though a glass sintered glass filter with a Celite pad. The filtrate was evaporated under reduced pressure to give (R,R)—NH2-mono (9.9 mg, […]). This compound was unstable when dissolved in methanol or CHCl3 under the irradiation of sunlight; therefore, it should be kept under an argon atmosphere in a dark place.

φX174 RFI DNA = assay: DNA cleavage test under photo-irradiation (UV-A lamp 365 nm, 3 h), agarose gel electrophoresis; type: biochemical; conditions: 4 cm, 10 mM sodium phosphate pH 7.0, samples 1, 5, 12 mM, 1 ┌L
Method: as §1, §2
The increased ratio of nicked DNA means that DNA was cleaved by the experimental conditions.

[2] = Xe lamp, polystylene filter, 3 cm, 2 hrs

Row | Compound | concentration required to convert supercoiled DNA to the nicked type DNA (supercoiled φX-174 DNA; [2]) [µM] | stability after deprotection of the amino protecting group [1] | stability when dissolved in methanol or CHCl3 under irradiation of sunlight [1] | DNA cleavage activity (φX174 RFI DNA) | other results
1 | O=C(OCC1C(COC(=O)c2c3ccccc3cc3ccccc23)C1(F)F)c1c2ccccc2cc2ccccc12 (stereo not drawn) [9-anthracene carboxylic diester of 1,3-bishydroxymethyl-2,2-difluoro-cyclopropane] |  |  |  |  | DNA cleavage activity (DNA): no significant DNA cleavage activity
2 | O=C(NC[C@H]1[C@H](CO)C1(F)F)c1c2ccccc2cc2ccccc12 [(R,R)-11, (R,R)-2,2-difluoro-3-hydroxymethyl-cyclopropylmethyl anthracene-9-carboxamide] |  |  |  |  | equivalent versus the DNA base pair at that concentration (supercoiled φX174 DNA; 20 mM sodium phosphate pH 7.0, 20% DMSO): 1.3 equivalent; concentration at which supercoiled DNA was converted to the nicked form (supercoiled φX174 DNA; 20 mM sodium phosphate pH 7.0, 20% DMSO, 6 cm): 100 µM; DNA cleavage activity (qualitative) (supercoiled φX174 DNA; FIG. 5): strong DNA cleavage activity
3 | NC[C@H]1[C@H](COC(=O)c2c3ccccc3cc3ccccc23)C1(F)F [(R,R)—NH2-mono, (R,R)-3-aminomethyl-2,2-difluoro-cyclopropylmethyl anthracene-9-carboxylate] | 85.5 | unstable | unstable |  | DNA cleavage strength relative to the (S,S)-isomer (supercoiled φX-174 DNA; Xe lamp, 2 hrs): more than 10 times; equivalent versus supercoiled φX-174 DNA at the required concentration (supercoiled φX-174 DNA; [2]): 0.667 equivalent; activity relative to the corresponding (S,S)-isomer (description) (supercoiled φX-174 DNA; stated in detailed description): five times stronger activity
4 | NC[C@@H]1[C@@H](COC(=O)c2c3ccccc3cc3ccccc23)C1(F)F [(S,S)—NH2-mono, (S,S)-3-aminomethyl-2,2-difluoro-cyclopropylmethyl anthracene-9-carboxylate] | 1200 | unstable | unstable | weak DNA cleavage agent | 
5 | CCOC(=O)c1c2ccccc2cc2ccccc12 [anth-OEt, Ethyl 9-anthracene carboxylate, reference compound] |  |  |  | no significant activity | 
